This is an account of results in US8487108B2, “Piperidinyl carbamate intermediates for the synthesis of aspartic protease inhibitors” (Vitae Pharmaceuticals, Inc., priority 2005, dated 2013).

The target of the assay is T1, trypsin-activated recombinant human renin (Homo sapiens, UniProt P00797).
T1 sequence (P00797 67-406): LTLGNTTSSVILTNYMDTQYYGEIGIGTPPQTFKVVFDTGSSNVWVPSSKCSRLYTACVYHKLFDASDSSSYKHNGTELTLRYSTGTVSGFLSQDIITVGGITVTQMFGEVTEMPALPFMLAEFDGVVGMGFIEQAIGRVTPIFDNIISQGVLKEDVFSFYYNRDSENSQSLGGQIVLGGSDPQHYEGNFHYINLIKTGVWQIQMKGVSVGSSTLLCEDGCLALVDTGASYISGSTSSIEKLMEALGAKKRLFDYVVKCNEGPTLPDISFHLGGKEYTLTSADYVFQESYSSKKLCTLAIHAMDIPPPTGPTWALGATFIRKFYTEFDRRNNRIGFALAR
The assay is described as follows: Renin fluorescence assay (internally quenched peptide substrate). The class given is biochemical. As to conditions: compounds I*. As to the method:
The sequence of this peptide corresponds to the sequence of human angiotensinogen. The following test protocol can be used. All reactions are carried out in a flat bottom white opaque microtiter plate. A 4 μL aliquot of 400 μM renin substrate (DABCYL-γ-[…]) in 192 μL assay buffer (50 mM BES, 150 mM NaCl, 0.25 mg/mL bovine serum albumin, pH7.0) is added to 4 μL of test compound in DMSO at various concentrations ranging from 10 μM to 1 nM final concentrations. Next, 100 μL of trypsin-activated recombinant human renin (final enzyme concentration of 0.2-2 nM) in assay buffer is added, and the solution is mixed by pipetting. The increase in fluorescence at 495 nm (excitation at 340 nm) is measured for 60-360 minutes at rt using a Perkin-Elmer Fusion microplate reader. The slope of a linear portion of the plot of fluorescence-increase as a function of time is then determined, and the rate is used for calculating percent inhibition in relation to uninhibited control. […] (Wang G. T. et al. Anal. Biochem. 1993, 210, 351; Nakamura, N. et al. J. Biochem. (Tokyo) 1991, 109, 741; Murakami, K. et al. Anal Biochem. 1981, 110, 232).
As a reminder, the IC50 is the concentration that gives 50% inhibition. For the compound `CNC[C@@H](C[C@H]1CCCC[C@@H]1O)NC(=O)N1CCC[C@@H]([C@@H](OCCNC(=O)OC)c2cccc(Cl)c2)C1` (relative stereo) [I*-104a, methyl 2-((R)-(3-chlorophenyl)((R)-1-((R)-1-((1R*,2S*)-2-hydroxycyclohexyl)-3-(methylamino)propan-2-ylcarbamoyl)piperidin-3-yl)methoxy)ethylcarbamate], the IC50 was less than 20 nM.
`CNC[C@H](CC1CCOCC1)NC(=O)N1CCC[C@@H]([C@@H](OCCNC(=O)OC)c2cc(C)cc(F)c2)C1` [I*-52a, methyl 2-((R)-(3-fluoro-5-methylphenyl)((R)-1-((S)-1-(methylamino)-3-(tetrahydro-2H-pyran-4-yl)propan-2-ylcarbamoyl)piperidin-3-yl)methoxy)ethylcarbamate]: the IC50 was less than 10 nM.
The figure for `CC[C@@H](N)[C@H](CC1CCCCC1)NC(=O)N1CCC[C@@H]([C@@H](OCCNC(=O)OC)c2cccc(Cl)c2)C1` [I*-83a, methyl 2-((R)-((R)-1-((2S,3R)-3-amino-1-cyclohexylpentan-2-ylcarbamoyl)piperidin-3-yl)(3-chlorophenyl)methoxy)ethylcarbamate] is less than 1 nM.
For `COC(=O)NCCO[C@@H](c1cc(F)cc(Cl)c1)[C@@H]1CCCN(C(=O)NC[C@@H](N)C[C@H]2CCCCOC2)C1` [I*-122a, methyl 2-((R)-((R)-1-((S)-2-amino-3-((R)-oxepan-3-yl)propylcarbamoyl)piperidin-3-yl)(3-chloro-5-fluorophenyl)methoxy)ethylcarbamate], the concentration for half-maximal inhibition (IC50) was less than 10 nM.
For `COC(=O)NCCO[C@@H](c1cccc(Cl)c1)[C@@H]1CCCN(C(=O)NC[C@@H](N)COc2ccccc2)C1` [I*-38a, methyl 2-((R)—((R)-1-((R)-2-amino-3-phenoxypropylcarbamoyl)piperidin-3-yl)(3-chlorophenyl)methoxy)ethylcarbamate] the value was less than 50 nM; for `CNC[C@H](C[C@H]1C[C@@H](F)[C@@H](F)C1)NC(=O)N1CCC[C@@H]([C@@H](OCCNC(=O)OC)c2cccc(Cl)c2)C1` [I*-124a, methyl 2-((R)-(3-chlorophenyl)((R)-1-((S)-1-((1r,3S,4R)-3,4-difluorocyclopentyl)-3-(methylamino)propan-2-ylcarbamoyl)piperidin-3-yl)methoxy)ethylcarbamate], less than 20 nM; for `CNC[C@H](CC12CC3CC(CC1C3)C2)NC(=O)N1CCC[C@@H]([C@@H](OCCNC(=O)OC)c2ccccc2)C1` [I*-74a, methyl 2-((R)-((3R)-1-((S)-1-(3-noradamantyl)-3-(methylamino)propan-2-ylcarbamoyl)piperidin-3-yl)(phenyl)methoxy)ethylcarbamate], less than 20 nM.
For `CNC[C@H](CC1CCOCC1)NC(=O)N1CCCC[C@@H]([C@@H](OCCNC(=O)OC)c2cccc(Cl)c2)C1` [I*-108a, methyl 2-((R)-(3-chlorophenyl)((R)-1-((S)-1-(methylamino)-3-(tetrahydro-2H-pyran-4-yl)propan-2-ylcarbamoyl)azepan-3-yl)methoxy)ethylcarbamate] the value was less than 50 nM; for `CNC[C@H](CC1CCCCC1)NC(=O)N1CCC[C@@H]([C@H](OCCNC(=O)OC)c2nc(C)cs2)C1` [I*-33a, methyl 2-((S)-((R)-1-((S)-1-cyclohexyl-3-(methylamino)propan-2-ylcarbamoyl)piperidin-3-yl)(4-methylthiazol-2-yl)methoxy)ethylcarbamate], more than 50 nM.
For `CNC[C@H](CC12CC3CC(CC1C3)C2)NC(=O)N1CCC[C@@H]([C@@H](OCCNC(=O)OC)c2cc(F)ccc2F)C1` [I*-149a, methyl 2-((R)-((R)-1-((S)-1-(3-noradamantyl)-3-(methylamino)propan-2-ylcarbamoyl)piperidin-3-yl)(2,5-difluorophenyl)methoxy)ethylcarbamate] the value was less than 10 nM; for `CNC[C@H](CC1CCCCC1)NC(=O)N1CCC[C@@H]([C@@H](OCCNC(=O)OC)c2ccc(F)c(Cl)c2)C1` [I*-118a, methyl 2-((R)-(3-chloro-4-fluorophenyl)((R)-1-((S)-1-cyclohexyl-3-(methylamino)propan-2-ylcarbamoyl)piperidin-3-yl)methoxy)ethylcarbamate], less than 1 nM.
Take `CNC[C@H](CC1CCCCC1)NC(=O)N1CCC[C@@H]([C@H](OCCNC(=O)OC)c2nccs2)C1` [I*-12a, methyl 2-((S)-((R)-1-((S)-1-cyclohexyl-3-(methylamino)propan-2-ylcarbamoyl)piperidin-3-yl)(thiazol-2-yl)methoxy)ethylcarbamate]: the IC50 is more than 50 nM.
For `CNC[C@H](C[C@H]1CCCCOC1)NC(=O)N1CCC[C@@H]([C@@H](OCCNC(=O)OC)c2cccc(Cl)c2F)C1` [I*-140a, methyl 2-((R)-(3-chloro-2-fluorophenyl)((R)-1-((S)-1-(methylamino)-3-((R)-oxepan-3-yl)propan-2-ylcarbamoyl)piperidin-3-yl)methoxy)ethylcarbamate] the value was less than 1 nM; for `CNC[C@H](CC1CCOCC1)NC(=O)N1CCC[C@@H]([C@@H](OCCNC(=O)OC)c2cccc(C)c2)C1` [I*-20a, methyl 2-((R)-((R)-1-((S)-1-(methylamino)-3-(tetrahydro-2H-pyran-4-yl)propan-2-ylcarbamoyl)piperidin-3-yl)(m-tolyl)methoxy)ethylcarbamate], less than 50 nM; for `CNC[C@@H](CC1(C)CCCCC1)NC(=O)N1CCC[C@@H]([C@@H](OCCNC(=O)OC)c2cccc(Cl)c2)C1` [I*-89a, methyl 2-((R)-(3-chlorophenyl)((R)-1-((R)-1-(methylamino)-3-(1-methylcyclohexyl)propan-2-ylcarbamoyl)piperidin-3-yl)methoxy)ethylcarbamate], more than 50 nM.
For `CNC[C@@H](CC1(C)CCCCC1)NC(=O)N1CCC[C@@H]([C@@H](OCCNC(=O)OC)c2cccc(F)c2)C1` [I*-42a, methyl 2-((R)-(3-fluorophenyl)((R)-1-((R)-1-(methylamino)-3-(1-methylcyclohexyl)propan-2-ylcarbamoyl)piperidin-3-yl)methoxy)ethylcarbamate] the value was more than 50 nM; for `CNC[C@H](CC1CCCC1)NC(=O)N1CCC[C@@H]([C@@H](OCCNC(=O)OC)c2cc(F)ccc2C)C1` [I*-24a, methyl 2-((R)—((R)-1-((S)-1-cyclopentyl-3-(methylamino)propan-2-ylcarbamoyl)piperidin-3-yl)(5-fluoro-2-methylphenyl)methoxy)ethylcarbamate], less than 1 nM.
The figure for `CNC[C@H](CC1CCOCC1)NC(=O)N1CCO[C@@H]([C@@H](OCCNC(=O)OC)c2cccc(Cl)c2)C1` [I*-75a, methyl 2-((S)-(3-chlorophenyl)((R)-4-((S)-1-(methylamino)-3-(tetrahydro-2H-pyran-4-yl)propan-2-ylcarbamoyl)morpholin-2-yl)methoxy)ethylcarbamate] is more than 50 nM.
As for `CNC[C@H](CC1CCOCC1)NC(=O)N1CCC[C@@H]([C@@H](OCCNC(=O)OC)c2cc(F)ccc2C)C1` [I*-50a, methyl 2-((R)-(5-fluoro-2-methylphenyl)((R)-1-((S)-1-(methylamino)-3-(tetrahydro-2H-pyran-4-yl)propan-2-ylcarbamoyl)piperidin-3-yl)methoxy)ethylcarbamate], the IC50 is less than 10 nM.
